# Laboratory results as given in paper PMC9558617 (ACS infectious diseases, 2022).
# System: Mtb H37Rv
# Assay: microbe, parasite or virus in culture
# Format: cell-based
# Settings: Mycobacterium tuberculosis, 168 h, read-out: MIC 7H9/ADC/Tw
row,Compound,MIC [µM]
1,"N[C@H](Cc1ccccc1)C(=O)O [D-Phe, D-phenylalanine]",> 310

# System: Mtb WT
# Assay: microbe, parasite or virus in culture
# Format: cell-based, Mycobacterium tuberculosis
# Settings: not given
row,Compound,MIC WT [µM]
1,Capreomycin,0.78
2,CC1(C)S[C@@H]2[C@H](NC(=O)[C@H](N)c3ccccc3)C(=O)N2[C@H]1C(=O)O [Ampicillin],>50

# Same assay, conditions: Mycobacterium tuberculosis
row,Compound,MIC [µM]
1,CC1(C)S[C@@H]2[C@H](NC(=O)[C@H](N)c3ccccc3)C(=O)N2[C@H]1C(=O)O [Ampicillin],2.3

# Same assay, conditions: Mycobacterium tuberculosis, read-out: MIC WT
row,Compound,MIC [µM]
1,[H]/N=C(/N)N[C@H]1[C@H](O)[C@@H](O)[C@H](O[C@@H]2O[C@@H](C)[C@](O)(C=O)[C@H]2O[C@@H]2O[C@@H](CO)[C@H](O)[C@@H](O)[C@@H]2NC)[C@@H](N/C(N)=N\[H])[C@@H]1O [Streptomycin],0.46
2,NNC(=O)c1ccncc1 [Isoniazid],0.31
3,CC(C)/N=c1\cc2n(-c3ccc(Cl)cc3)c3ccccc3nc-2cc1Nc1ccc(Cl)cc1 [Clofazimine],0.16
4,COc1c(N2C[C@@H]3CCCN[C@@H]3C2)c(F)cc2c(=O)c(C(=O)O)cn(C3CC3)c12 [Moxifloxacin],0.12
5,CO[C@H]1/C=C/O[C@@]2(C)Oc3c(C)c(O)c4c(O)c(c(/C=N/N5CCN(C)CC5)c(O)c4c3C2=O)NC(=O)/C(C)=C\C=C\[C@H](C)[C@H](O)[C@@H](C)[C@@H](O)[C@@H](C)[C@H](OC(C)=O)[C@@H]1C [Rifampicin],0.012
6,C[C@@H](O)[C@H]1C(=O)N2C(C(=O)O)=C(SCCN=CN)C[C@H]12 [Imipenem],0.39
7,C[C@@H](O)[C@H]1C(=O)N2C(C(=O)O)=C(S[C@@H]3CN[C@H](C(=O)N(C)C)C3)[C@H](C)[C@H]12 [Meropenem],1.2
8,C[C@]1(COc2ccc(N3CCC(Oc4ccc(OC(F)(F)F)cc4)CC3)cc2)Cn2cc([N+](=O)[O-])nc2O1 [Delamanid],0.0031
9,N[C@@H]1CON=C1O [D-Cycloserine],4.7
10,CN[C@H](CC(C)C)C(=O)N[C@H]1C(=O)N[C@@H](CC(N)=O)C(=O)N[C@H]2C(=O)N[C@H]3C(=O)N[C@H](C(=O)N[C@H](C(=O)O)c4cc(O)cc(O)c4-c4cc3ccc4O)[C@H](O)c3ccc(c(Cl)c3)Oc3cc2cc(c3O[C@@H]2O[C@H](CO)[C@@H](O)[C@H](O)[C@H]2O[C@H]2C[C@](C)(N)[C@H](O)[C@H](C)O2)Oc2ccc(cc2Cl)[C@H]1O [Vancomycin],5
11,CC(=O)NC[C@H]1CN(c2ccc(N3CCOCC3)c(F)c2)C(=O)O1 [Linezolid],0.78
12,COc1nc2ccc(Br)cc2cc1[C@@H](c1ccccc1)[C@@](O)(CCN(C)C)c1cccc2ccccc12 [Bedaquiline],0.31
13,Nc1ccc(C(=O)O)c(O)c1 [p-Aminosalicylic acid],0.3
14,CCc1cc(C(N)=S)ccn1 [Ethionamide],0.3
15,CC[C@@H](CO)NCCN[C@@H](CC)CO [Ethambutol],1.6
16,CC1(C)S[C@@H]2[C@H](NC(=O)[C@H](N)c3ccccc3)C(=O)N2[C@H]1C(=O)O [Ampicillin],> 50

# System: PanE KPR from E. coli
# Assay: not given
# Settings: literature values; cited from earlier work
row,Compound,Km [µM]
1,NADPH,4 to 7
2,CC(C)(CO)C(=O)C(=O)O [ketopantoate],30 to 120

# System: CC(C)(CO)C(=O)C(=O)O
# Assay: purified protein, by the assay type
# Settings: not given
row,Compound,Km [µM]
1,MtbPanG (Rv3603c) (Mycobacterium tuberculosis H37Rv),24 ± 2
